According to patent US10513519B2, “Solid forms of (1S,4S)-4-(2-(((3S,4R)-3-fluorotetrahydro-2H-pyran-4-yl)amino)-8-((2,4,6-trichlorophenyl)amino)-9H-purin-9-yl)-1-methylcyclohexane-1-carboxamide and methods of their use” (Signal Pharmaceuticals, LLC, priority 2016, dated 2019):
pIC50: −log10 of the molar value.

Tested on: cancer cell lines
Assay: Multiplexed cytotoxicity assay: cell proliferation (relative cell count IC50, GI50)
Assay type: cell-based
Method: (§1) Cells are grown in RPMI1640, 10% FBS, 2 mM L-alanyl-L-Glutamine, 1 mM Na pyruvate or a special medium in a humidified atmosphere of 5% CO2 at 37° C. Cells are seeded into 384-well plates and incubated in a humidified atmosphere of 5% CO2 at 37° C. Compounds are added 24 h post cell seeding. At the same time, a time zero untreated cell plate is generated. After a 72 hour incubation period, cells are fixed and stained with fluorescently labeled antibodies and nuclear dye to allow visualization of nuclei, apoptotic cells and mitotic cells. Apoptotic cells are detected using an anti-active caspase-3 antibody. Mitotic cells are detected using an anti phospho-histone-3 antibody. Compounds are serially diluted 3.16-fold and assayed over 10 concentrations in a final assay concentration of 0.1% DMSO from the highest test concentration of 10 μM. Automated fluorescence microscopy was carried out using a Molecular Devices ImageXpress Micro XL high-content imager, and images are collected with a 4× objective.
Sixteen-bit TIFF images are acquired and analyzed with MetaXpress 5.1.0.41 software. Cell proliferation is measured by the signal intensity of the incorporated nuclear dye. The cell proliferation assay output is referred to as the relative cell count. To determine the cell proliferation end point, the cell proliferation data output is transformed to percentage of control (POC) using the following formula: POC=relative cell count(compound wells)/relative cell count(vehicle wells)×100
GI50 is the concentration needed to reduce the observed growth by half. This is the concentration that inhibits the growth to the level midway between growth in untreated cells and the number of cells seeded in the well (Time zero value). The IC50 values are calculated using nonlinear regression to fit data to a sigmoidal 4 point, 4 parameter One-Site dose response model, where: y(fit)=A+[(B−A)/(1+((C/x)^D))].
as §1, with “In another experiment, cells were grown” for “Cells are grown”, “Cells were” for “Cells are”, “Compounds were” for “Compounds are”, “plate was” for “plate is”, “cells were” for “cells are”, “images were” for “images are”
Sixteen-bit TIFF images were acquired and analyzed with MetaXpress 5.1.0.41 software. Cell proliferation was measured by the signal intensity of the incorporated nuclear dye. The cell proliferation assay output was referred to as the relative cell count. To determine the cell proliferation end point, the cell proliferation data output was transformed to percentage of control (POC) using the following formula: POC=relative cell count(compound wells)/relative cell count(vehicle wells)×100
GI50 refers to the concentration needed to reduce the observed growth by half. This corresponds to the concentration that inhibits the growth to the level midway between growth in untreated cells and the number of cells seeded in the well (Time zero value). The IC50 values were calculated using nonlinear regression to fit data to a sigmoidal 4 point, 4 parameter One-Site dose response model, where: y(fit)=A+[(B−A)/(1+((C/x)^D))].

[1] = Homo sapiens, SK-N-AS, 72 h, SKNAS, CNS, Neuroblastoma
[2] = Homo sapiens, SK-N-DZ, 72 h, SKNDZ, CNS, Neuroblastoma
[3] = Homo sapiens, SK-N-FI, 72 h, SKNFI, CNS, Neuroblastoma
[4] = Homo sapiens, SK-NEP-1, SKNEP1 (Kidney)
[5] = Homo sapiens, SK-OV-3, 72 h, SKOV3, Female GU, Ovary, 72 h
[6] = Homo sapiens, SK-UT-1, 72 h, SKUT1, Soft Tissue, Sarcoma, 72 h
[7] = Homo sapiens, SNB-19, SNB19 (CNS, Glioma)
[8] = Homo sapiens, SNU1, 72 h, SNU1, Stomach, 72 h
[9] = Homo sapiens, SNU-5, 72 h, SNU5, Stomach, 72 h
[10] = Homo sapiens, SNU-16, 72 h, SNU16, Stomach, 72 h
[11] = Homo sapiens, SNU-423, SNU423 (Liver)
[12] = Homo sapiens, SNU-C2B, SNUC2B (Colon)
[13] = Homo sapiens, ST486, ST486 (Hematopoietic and lymphoid, Lymphoma)
[14] = Homo sapiens, SU-DHL10, SUDHL10 (Hematopoietic and lymphoid, Lymphoma)
[15] = Homo sapiens, SU-DHL-4, SUDHL4 (Hematopoietic and lymphoid, Lymphoma)
[16] = Homo sapiens, SU-DHL-5, SUDHL5 (Hematopoietic and lymphoid, Lymphoma)
[17] = Homo sapiens, SU-DHL-8, SUDHL8 (Hematopoietic and lymphoid, Lymphoma)
[18] = Homo sapiens, SU.86.86, 72 h, SU8686, Pancreas, 72 h
[19] = Homo sapiens, SUP-T1, SUPT1 (Hematopoietic and lymphoid, Lymphoma)
[20] = Homo sapiens, SW13, SW13 (Endocrine, Adrenal gland)
[21] = Homo sapiens, SW48, SW48 (Colon)
[22] = Homo sapiens, SW480, SW480 (Colon)
[23] = Homo sapiens, SW684, 72 h, SW684, Soft Tissue, Sarcoma, 72 h
[24] = Homo sapiens, SW837, SW837 (Colon)
[25] = Homo sapiens, SW872, 72 h, SW872, Soft Tissue, Sarcoma, 72 h
[26] = Homo sapiens, SW900, 72 h, SW900, Lung, SCLC, 72 h
[27] = Homo sapiens, SW948, SW948 (Colon)
[28] = Homo sapiens, SW 954, 72 h, SW954, Female GU, Vulva, 72 h
[29] = Homo sapiens, SW 962, 72 h, SW962, Female GU, Vulva, 72 h
[30] = Homo sapiens, SW982, 72 h, SW982, Soft Tissue, Sarcoma, 72 h
[31] = Homo sapiens, SW1088, SW1088 (CNS, Glioma)
[32] = Homo sapiens, SW1353, 72 h, SW1353, Soft Tissue, Osteosarcoma, 72 h
[33] = Homo sapiens, SW1417, SW1417 (Colon)
[34] = Homo sapiens, SW1463, SW1463 (Colon)
[35] = Homo sapiens, SW1783, SW1783 (CNS, Glioma)
[36] = Homo sapiens, SW-403, SW403 (Colon)
[37] = Homo sapiens, SW-620, SW620 (Colon)
[38] = Homo sapiens, SiHa, SIHA (Female GU, Cervix)
[39] = Homo sapiens, T47D, T47D (Breast)
[40] = Homo sapiens, T98G, T98G (CNS, Glioma)
[41] = Homo sapiens, TCC-SUP, TCCSUP (Bladder)
[42] = Homo sapiens, THP-1, THP1 (Hematopoietic and lymphoid, Leukemia)
[43] = Homo sapiens, U2OS, 72 h, Soft Tissue, Osteosarcoma
[44] = Homo sapiens, U138-MG, U138MG (CNS, Glioma)
[45] = Homo sapiens, U-87 MG, U87MG (CNS, Glioma)
[46] = Homo sapiens, U-118-MG, U118MG (CNS, Glioma)
[47] = Homo sapiens, UMUC3, UMUC3 (Bladder)
[48] = Homo sapiens, WM 266-4, 72 h, WM2664, Skin, Melanoma, 72 h
[49] = Homo sapiens, WiDr, WIDR (Colon)
[50] = Homo sapiens, YAPC, 72 h, Pancreas
[51] = Homo sapiens, ZR-75-1, ZR751 (Breast)
[52] = Hs 445, HS445 (Hematopoietic and lymphoid, Lymphoma)
[53] = KG1 (Hematopoietic and lymphoid, Leukemia)
[54] = KHOS-240S, 72 h, KHOS240S, Soft Tissue, Osteosarcoma
[55] = MS751, 72 h, MS751, Female GU, Ovary, 72 h
[56] = MX1 (Hematopoietic and lymphoid, Leukemia)
[57] = NAMALWA (Hematopoietic and lymphoid, Lymphoma)
[58] = OE21, 72 h, OE21, Head and Neck, Esophageal, 72 h
[59] = RAMOSRA1 (Hematopoietic and lymphoid, Lymphoma)
[60] = SKO-007, 72 h, SKO007, Hematopoietic and lymphoid, Myeloma, 72 h
[61] = SR (Hematopoietic and lymphoid, Lymphoma)
[62] = SW579, 72 h, SW579, Endocrine, Thyroid, 72 h
[63] = TE 381.T, 72 h, TE381T, Soft Tissue, Sarcoma
[64] = TF1 (Hematopoietic and lymphoid, Leukemia)
[65] = TUR (Hematopoietic and lymphoid, Lymphoma)

C[C@]1(C(N)=O)CC[C@@H](n2c(Nc3c(Cl)cc(Cl)cc3Cl)nc3cnc(N[C@@H]4CCOC[C@H]4F)nc32)CC1 [Compound 1, cis-4-[2-{[(3S,4R)-3-fluorooxan-4-yl]amino}-8-(2,4,6-trichloroanilino)-9H-purin-9-yl]-1-methylcyclohexane-1-carboxamide]
GI50 [1]: 48.9 nM
pIC50 [1]: 6.88
GI50 [2]: 7400 nM
pIC50 [2]: < 5.00
GI50 [3]: 15.1 nM
pIC50 [3]: 6.87
GI50 [4]: > 10000 nM
pIC50 [4]: < 5.00
GI50 [5]: 547 nM
pIC50 [5]: < 5.00
GI50 [6]: > 10000 nM
pIC50 [6]: < 5.00
GI50 [7]: 163 nM
pIC50 [7]: 6.61
GI50 [8]: 35.5 nM
pIC50 [8]: 7.20
GI50 [9]: 36.8 nM
pIC50 [9]: 7.03
GI50 [10]: > 10000 nM
pIC50 [10]: < 5.00
GI50 [11]: 192 nM
pIC50 [11]: 6.56
GI50 [12]: 54.4 nM
pIC50 [12]: 6.14
GI50 [13]: 5020 nM
pIC50 [13]: 5.21
GI50 [14]: 1230 nM
pIC50 [14]: 5.85
GI50 [15]: 168 nM
pIC50 [15]: 6.48
GI50 [16]: 1.1 nM
pIC50 [16]: 8.89
GI50 [17]: 19.3 nM
pIC50 [17]: 7.39
GI50 [18]: 63.5 nM
pIC50 [18]: 6.88
GI50 [19]: 19.6 nM
pIC50 [19]: 7.33
GI50 [20]: 71.1 nM
pIC50 [20]: 6.87
GI50 [21]: 1.8 nM
pIC50 [21]: 8.51
GI50 [22]: 18.4 nM
pIC50 [22]: 7.51
GI50 [23]: 86.9 nM
pIC50 [23]: 6.43
GI50 [24]: 172 nM
pIC50 [24]: 6.46
GI50 [25]: 105 nM
pIC50 [25]: 6.87
GI50 [26]: 21.6 nM
pIC50 [26]: 7.40
GI50 [27]: 195 nM
pIC50 [27]: 6.49
GI50 [28]: 114 nM
pIC50 [28]: 6.85
GI50 [29]: 82.8 nM
pIC50 [29]: 6.63
GI50 [30]: 15.6 nM
pIC50 [30]: 7.21
GI50 [31]: 3350 nM
pIC50 [31]: 5.22
GI50 [32]: 184 nM
pIC50 [32]: 6.53
GI50 [33]: 8.8 nM
pIC50 [33]: 7.45
GI50 [34]: 135 nM
pIC50 [34]: 6.74
GI50 [35]: 5920 nM
pIC50 [35]: 5.01
GI50 [36]: 47.6 nM
pIC50 [36]: 6.76
GI50 [37]: 49.2 nM
pIC50 [37]: 7.10
GI50 [38]: > 10000 nM
pIC50 [38]: < 5.00
GI50 [39]: > 10000 nM
pIC50 [39]: < 5.00
GI50 [40]: > 10000 nM
pIC50 [40]: < 5.00
GI50 [41]: 2210 nM
pIC50 [41]: 5.18
GI50 [42]: 25.1 nM
pIC50 [42]: 7.31
GI50 [43]: 230 nM
pIC50 [43]: 6.43
GI50 [44]: 53 nM
pIC50 [44]: < 5.00
GI50 [45]: 69.2 nM
pIC50 [45]: 7.00
GI50 [46]: 175 nM
pIC50 [46]: < 5.00
GI50 [47]: 149 nM
pIC50 [47]: 6.70
GI50 [48]: 12 nM
pIC50 [48]: 7.45
GI50 [49]: 10.4 nM
pIC50 [49]: 7.88
GI50 [50]: 183 nM
pIC50 [50]: 6.17
GI50 [51]: 94.3 nM
pIC50 [51]: 5.11
GI50 [52]: 14.3 nM
pIC50 [52]: 7.42
GI50 (Hs766T, 72 h, Pancreas): 34.3 nM
pIC50 (Hs766T, 72 h, Pancreas): 7.10
GI50 (J82 (Bladder)): > 10000 nM
pIC50 (J82 (Bladder)): < 5.00
GI50 [53]: 1.7 nM
pIC50 [53]: 7.49
GI50 [54]: > 10000 nM
pIC50 [54]: < 5.00
GI50 (KPL-1, KPL1 (Breast)): > 10000 nM
pIC50 (KPL-1, KPL1 (Breast)): < 5.00
GI50 [55]: 6910 nM
pIC50 [55]: 5.02
GI50 (MT3 (Breast)): 674 nM
pIC50 (MT3 (Breast)): 5.97
GI50 [56]: 40.1 nM
pIC50 [56]: 7.21
GI50 [57]: 18.1 nM
pIC50 [57]: 7.62
GI50 (OCUG-1, OCUG1 (Liver)): 464 nM
pIC50 (OCUG-1, OCUG1 (Liver)): 5.89
GI50 [58]: 93.9 nM
pIC50 [58]: 6.91
GI50 [59]: 3660 nM
pIC50 [59]: 5.42
GI50 (RKO (Colon)): 35.3 nM
pIC50 (RKO (Colon)): 7.39
GI50 (RKOAS451, RKOAS451 (Colon)): 40.5 nM
pIC50 (RKOAS451, RKOAS451 (Colon)): 7.35
GI50 (SH4 (Skin, Melanoma)): 20.8 nM
pIC50 (SH4 (Skin, Melanoma)): 7.54
GI50 [60]: 27.4 nM
pIC50 [60]: 6.32
GI50 [61]: 1420 nM
pIC50 [61]: 5.74
GI50 [62]: 47.7 nM
pIC50 [62]: 7.15
GI50 (T24 (Bladder)): 233 nM
pIC50 (T24 (Bladder)): 6.56
GI50 [63]: 7.6 nM
pIC50 [63]: 7.89
GI50 [64]: 1.5 nM
pIC50 [64]: 8.02
GI50 [65]: 41.5 nM
pIC50 [65]: 7.27
GI50 (Y79 (Eye-retinoblastoma, Eye)): > 10000 nM
pIC50 (Y79 (Eye-retinoblastoma, Eye)): < 5.00
